Measurements: PubChem BioAssay AID588650 (The Scripps Research Institute Molecular Screening Center, 2011)

Biological target: Epidermal growth factor receptor (Homo sapiens) (UniProt P00533)
Assay: phospho-EGFR protein level reduction, late-stage follow-up, counter-screen for KLF5 inhibitor project, HCT116 cells, chemiluminescent western blot, powder samples (AID 588650)
Conditions: 24 h, at 10 µM, stronger effect = higher value

Epidermal growth factor receptor (Homo sapiens), sequence (P00533 whole entry, looked up): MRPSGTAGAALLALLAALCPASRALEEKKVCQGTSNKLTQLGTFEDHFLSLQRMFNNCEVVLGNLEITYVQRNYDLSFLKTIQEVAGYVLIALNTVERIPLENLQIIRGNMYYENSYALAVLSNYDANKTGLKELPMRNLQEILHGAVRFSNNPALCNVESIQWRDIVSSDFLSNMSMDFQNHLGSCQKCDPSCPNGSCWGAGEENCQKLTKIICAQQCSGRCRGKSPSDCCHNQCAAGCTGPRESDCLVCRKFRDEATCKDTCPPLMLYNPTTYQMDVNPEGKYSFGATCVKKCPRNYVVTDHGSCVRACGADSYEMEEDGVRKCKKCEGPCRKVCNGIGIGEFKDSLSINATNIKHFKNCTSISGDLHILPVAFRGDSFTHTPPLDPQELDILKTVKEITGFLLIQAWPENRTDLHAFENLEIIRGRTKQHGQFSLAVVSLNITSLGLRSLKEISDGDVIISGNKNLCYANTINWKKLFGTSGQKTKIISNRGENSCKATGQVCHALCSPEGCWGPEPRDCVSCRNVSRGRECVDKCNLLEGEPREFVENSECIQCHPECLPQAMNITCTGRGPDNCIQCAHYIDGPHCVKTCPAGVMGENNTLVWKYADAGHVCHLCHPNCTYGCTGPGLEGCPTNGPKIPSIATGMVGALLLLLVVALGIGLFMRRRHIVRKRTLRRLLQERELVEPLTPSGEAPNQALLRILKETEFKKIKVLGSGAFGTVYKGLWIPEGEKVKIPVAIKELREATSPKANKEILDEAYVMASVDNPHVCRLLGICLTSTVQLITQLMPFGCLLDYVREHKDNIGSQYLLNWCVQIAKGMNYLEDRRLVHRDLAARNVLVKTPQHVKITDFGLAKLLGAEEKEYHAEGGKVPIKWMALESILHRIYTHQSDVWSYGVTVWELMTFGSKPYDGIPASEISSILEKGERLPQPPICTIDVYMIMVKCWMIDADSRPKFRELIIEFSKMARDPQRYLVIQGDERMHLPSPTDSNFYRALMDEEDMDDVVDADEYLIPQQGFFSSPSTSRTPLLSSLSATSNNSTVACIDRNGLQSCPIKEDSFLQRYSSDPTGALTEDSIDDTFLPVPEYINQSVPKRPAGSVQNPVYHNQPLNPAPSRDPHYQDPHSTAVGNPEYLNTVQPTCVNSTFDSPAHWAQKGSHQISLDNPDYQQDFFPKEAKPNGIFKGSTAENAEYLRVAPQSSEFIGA

inhibition [%] | SMILES
-64.9 | CN(C(=O)COC(=O)/C=C/c1cccc([N+](=O)[O-])c1)C1CCS(=O)(=O)C1 (stereo not drawn)
-53.2 | CN(C(=O)CNC(=O)/C=C/c1cccc(Cl)c1)C1CCS(=O)(=O)C1 (stereo not drawn)
-254 | CN(C(=O)CNC(=O)/C=C/c1cccc(Cl)c1)C1CCS(=O)(=O)CC1
